From article PMC10857906, “PROTAC-mediated NR4A1 degradation as a novel strategy for cancer immunotherapy” (The Journal of Experimental Medicine, 2024)

Experiments:
[1] = molecular target: T1, NR4A1 (Homo sapiens, UniProt P22736); assay: NR4A1 degradation in CHL-1 human melanoma cells (immunoblotting); assay type: cell-based; conditions: CHL-1 cells, 16 h
T1 construct: NR-V04 effectively promoted the degradation of NR4A1 in two human melanoma cell lines within 16 h; endogenous in cells; host or cells: CHL-1, A375, WM164, M229 human melanoma cells
Method: Human melanoma cell lines: A375 and CHL-1 (gifts from Dr. D. Zhou, the University of Texas Health Science Center, San Antonio, TX, USA) were cultured in Dulbecco’s Modified Eagles’ Medium (DMEM, D5796; Sigma-Aldrich), WM164 and M229 (gifts from Dr. K.S.M. Smalley’s lab) were cultured in RPMI-1640 (R8758; Sigma-Aldrich). Mouse melanoma cell lines: B16F10 (CRL-6475, ATCC) was cultured in DMEM, SW1 and SM1 (gift from Dr. K.S.M. Smalley, Moffitt Cancer Center, Tampa, FL, USA) were cultured in RPMI. Human epithelial kidney cell lines: HEK293T (293T, CRL-3216; ATCC) and Vhl-KO-293T (gift from Dr. D. Zhou, the University of Texas Health Science Center, San Antonio, TX, USA) were cultured in DMEM. Mouse colon cancer cell lines: MC38 (ENH204-FP; Kerafast Inc.) was cultured in DMEM supplemented with 1 mM glutamine, […] non-essential amino acids (11140050; Thermo Fisher Scientific), 1 mM sodium pyruvate (11360070; Thermo Fisher Scientific), and 10 mM HEPES (15630080; Thermo Fisher Scientific). All cell culturing media were supplemented with 10% fetal bovine serum (FBS, F2442; Sigma-Aldrich), 100 U/ml penicillin, and 100 µg/ml streptomycin (P4333; Sigma-Aldrich).
Samples were lysed using radioimmunoprecipitation assay buffer (RIPA) lysis buffer (150 mM NaCl, 5 mM EDTA, 50 mM Tris pH 8.0, 0.5% sodium deoxycholate, 1% NP-40, 0.1% SDS) supplemented with 1 mM dithiothreitol and protease inhibitors. The lysates were separated by SDS-PAGE and analyzed using standard western blotting procedures ([Khan et al., 2019]). Antibodies: human NR4A1 (ab153914, 1:1,000; Abcam), mouse NR4A1 (14-5965-82, 1:1,000; Invitrogen), NR4A2 (AV38753, 1:1,000; Sigma-Aldrich), NR4A3 (TA804893, 1: 1,000; Thermo Fisher Scientific), VHL (68547, 1:1,000; Cell Signaling), β-actin (13E5, 1:5,000; Cell Signaling), β-tubulin (9F3, 1: 5,000; Cell Signaling), and GAPDH (D16H11, 1: 5,000; Cell Signaling) were employed for protein detection.

[2] = test system: NR4A1 mRNA; assay: NR4A1 mRNA by qPCR in CHL-1 cells; assay type: cell-based, human; conditions: 500 nM, ACTB as control
Method: Total RNA was extracted from cells using RNeasy Kits (74004; QIAGEN) following the manufacturer’s instructions. cDNA synthesis was performed using SuperScript III Reverse Transcriptase (18080044; Thermo Fisher Scientific) with 100 ng RNA as the template. Amplification of cDNA was carried out using 2× PowerUP SYBR Green Master Mix (A25778; Thermo Fisher Scientific). Each reaction was conducted in triplicates and results were normalized to the expression of a housekeeping gene. Primer (Eurofins): human β-actin (forward sequence: 5′-CACCATTGGCAATGAGCGGTTC-3′; reverse sequence: 5′-AGGTCTTTGCGGATGTCCACGT-3′) and human NR4A1 (forward sequence: 5′-GGACAACGCTTCATGCCAGCAT-3′; reverse sequence: 5′-CCTTGTTAGCCAGGCAGATGTAC-3′).

[3] = test system: MC38 tumors; assay: MC38 colon cancer syngeneic tumor model; assay type: in vivo, mouse; conditions: MC38 in WT mice, 1.8 mg/kg NR-V04 or 0.75 mg/kg celastrol i.p. twice a week from day 7
From the text: (§1) 7–9-wk-old C57BL/6J, B6.129S2-Ighm^tm1Cgn/J (002288), B6.129S2-Nr4a1^tm1Jmi/J (NR4A1^−/−, 006187), and NOD-SCID interleukin-2 receptor gamma null (NSG) mice were purchased from Jackson Laboratories. For all studies involving NR-V04 and celastrol, the compounds were formulated in 50% phosal PG, 45% miglyol 810N, and 5% polysorbate 80 and administered via i.p. injection.
(§2) For syngeneic tumor models, 5 × 10^5 cells MC38, Yumm1.7, and Yummer1.7, 1 × 10^5 cells of B16F10 were resuspended in PBS and implanted into 7–9-wk-old mice subcutaneously. For the tumor inhibition experiment, mice were treated with 1.8 mg/kg NR-V04 or 0.75 mg/kg celastrol by i.p. injection twice weekly. For the immune profile experiment, once tumors reached 0.5 cm in diameter, mice were treated with 1.8 mg/kg NR-V04 by i.p. injection twice weekly. For the toxicity experiment, male and female non-tumor-bearing mice were treated with 2 mg/kg NR-V04 for two doses in the first week and 5 mg/kg for another two doses in the second week. Blood samples were taken from the submandibular (facial) vein before each treatment and 42 days later for hematological analysis, and body weight was measured twice per week up to day 42. Mice were euthanized in accordance with the IACUC protocol once the largest tumors reached 2 cm in diameter, and tissues were collected for further analysis.

[4] = test system: B16F10 melanoma; assay: B16F10 melanoma syngeneic tumor model; assay type: in vivo, mouse; conditions: B16F10 in WT mice, 1.8 mg/kg NR-V04 or 0.75 mg/kg celastrol i.p. twice a week from day 7
From the text: as §1, §2

[5] = molecular target: NR4A1; conditions: ref Hu et al., 2017; read-out: binding affinity of celastrol to NR4A1 (Kd); cited from earlier work
[6] = molecular target: NR4A1 and VHL (Homo sapiens, UniProt P22736+P40337); assay: Proximity ligation assay (PLA) for the NR4A1-VHL ternary complex; assay type: cell-based; set-up: endogenous in cells; host or cells: CHL-1 and A375 human melanoma cells; conditions: CHL-1 and A375 cells, 500 nM, 16 h, 0.5 μM MG132 pretreatment
Method: 5 × 10^4 CHL-1 and A375 cells were cultured in Nunc Lab-Tek Chamber Slide (177402; Thermo Fisher Scientific). The cells were treated with DMSO, 500 nM celastrol, and 500 nM NR-V04 for 16 h with MG132 inhibitor. The PLA was conducted with Duolink In Situ Red Starter Kit Mouse/Rabbit (DUO92101; Sigma-Aldrich) following the standard protocol. Additionally, a non-stain cell group was included as a negative control to account for background signal during PLA assay. The signal was detected using a confocal microscope (LSM 710; Zeiss). Primary antibody: NR4A1 (HPA059742, 2 μg/ml, isotype-rabbit; Sigma-Aldrich) and VHL (MA5-13940, 2 μg/ml, isotype-mouse; Thermo Fisher Scientific).

T1 sequence (P22736 whole entry): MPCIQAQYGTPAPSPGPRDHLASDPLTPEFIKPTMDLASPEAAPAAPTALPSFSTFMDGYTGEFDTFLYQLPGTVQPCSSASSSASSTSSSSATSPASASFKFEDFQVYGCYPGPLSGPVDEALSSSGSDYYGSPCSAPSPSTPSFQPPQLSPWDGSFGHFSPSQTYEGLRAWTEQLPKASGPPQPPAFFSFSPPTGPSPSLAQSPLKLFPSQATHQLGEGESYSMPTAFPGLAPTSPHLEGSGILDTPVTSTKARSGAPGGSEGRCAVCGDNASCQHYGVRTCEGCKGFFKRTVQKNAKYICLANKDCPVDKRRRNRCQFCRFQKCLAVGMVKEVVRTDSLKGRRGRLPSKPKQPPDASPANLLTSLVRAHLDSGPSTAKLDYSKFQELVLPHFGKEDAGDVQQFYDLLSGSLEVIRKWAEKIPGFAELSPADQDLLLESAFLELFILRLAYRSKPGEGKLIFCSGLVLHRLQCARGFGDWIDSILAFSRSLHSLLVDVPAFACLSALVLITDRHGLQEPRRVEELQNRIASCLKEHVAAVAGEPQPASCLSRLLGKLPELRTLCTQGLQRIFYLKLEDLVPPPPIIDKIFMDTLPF
Chain of NR4A1 and VHL (P22736 whole entry): as above
Chain of NR4A1 and VHL (P40337 whole entry): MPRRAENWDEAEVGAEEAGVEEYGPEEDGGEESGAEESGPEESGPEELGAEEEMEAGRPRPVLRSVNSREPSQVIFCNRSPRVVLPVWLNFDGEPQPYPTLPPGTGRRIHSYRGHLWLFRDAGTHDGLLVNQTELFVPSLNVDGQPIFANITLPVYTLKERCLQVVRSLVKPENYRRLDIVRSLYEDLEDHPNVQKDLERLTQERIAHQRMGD
Chain of NR4A1 and VHL (Q15369 whole entry partner): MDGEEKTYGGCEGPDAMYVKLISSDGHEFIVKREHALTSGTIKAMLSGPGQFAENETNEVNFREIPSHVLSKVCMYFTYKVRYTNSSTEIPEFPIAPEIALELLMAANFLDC
Chain of NR4A1 and VHL (Q15370 whole entry partner): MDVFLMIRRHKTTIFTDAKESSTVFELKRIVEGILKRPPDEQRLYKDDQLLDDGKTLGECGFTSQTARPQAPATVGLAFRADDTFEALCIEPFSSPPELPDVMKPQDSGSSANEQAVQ

SMILES: CC1=C(O)C(=O)C=C2C1=CC=C1[C@@]2(C)CC[C@@]2(C)[C@@H]3C[C@](C)(C(=O)O)CC[C@]3(C)CC[C@]12C [celastrol, reference compound]
- NR4A1 protein level, initial screening ([1]; 250 nM, immunoblotting and densitometry): did not alter the protein level of NR4A1
- NR4A1 protein level, dose response [1]: did not change NR4A1 protein level
- NR4A1 mRNA level [2]: increase in NR4A1 mRNA levels after 2 h
- tumor growth [3]: failure to inhibit tumor growth of MC38 tumors
- tumor growth [4]: increased growth of B16F10 tumors
- Kd [5]: 290 nM
- PLA signals (ternary complex formation NR4A1-VHL) [6]: did not
